Results from patent US20240336654A1, “ANTIMICROBIAL PEPTIDOMIMETICS” (SPEXIS AG, priority 2021, published 2024).
Where a SMILES comes first, the peptide text is derived from it. Bridges are numbered along the chain shown (N, C = ends). [ ]: non-standard residue; d: D form. Hyp = O=C(O)[C@@H]1C[C@@H](O)CN1; Pen = CC(C)(S)[C@H](N)C(=O)O; ΔPro = O=C(O)[C@@H]1C=CCN1; dDab = NCC[C@@H](N)C(=O)O; Dab = NCC[C@H](N)C(=O)O

Assays:
Format in all cases: cell-based
[1] = test system: human red blood cells (hRBC); settings: red cells of human, 1 h, 200 μg/mL
Procedure: Lyophilized peptides were weighed on a Microbalance (Mettler MT5) and dissolved in sterile water to a final concentration of 1 mg/mL. Stock solutions were kept at +4° C., light protected. The peptides were tested for their hemolytic activity against human red blood cells (hRBC). Fresh hRBC were washed three times with phosphate buffered saline (PBS) and centrifuged for 5 min at 3000×g. Compounds (200 μg/mL) were incubated with 20% hRBC (v/v) for 1 h at 37° C. and shaking at 300 rpm. A value of 0% and 100% cell lyses, respectively, was determined by incubation of hRBC in the presence of PBS and 2.5% Triton X-100 in H2O, respectively. The samples were centrifuged, the supernatants were 8-fold diluted in PBS buffer and the optical densities (OD) were measured at 540 nm. The 100% lyses value (OD540H2O) gave an OD540 of approximately 0.5-1.0. Percent hemolysis was calculated as follows: (OD540peptide/OD540H2O)×100%.

[2] = test system: Escherichia coli MCR-1 Af 45; settings: MCR-1 Af 45
Procedure: (§1) Lyophilized peptides were weighed on a Microbalance (Mettler MT5) and dissolved in sterile water to a final concentration of 1 mg/mL. Stock solutions were kept at +4° C., light protected.
(§2) The selective antimicrobial activities of the peptides were determined in 96-well plates (Greiner, polystyrene) by the standard CLSI broth microdilution method (Clinical and Laboratory Standards Institute. Methods for Dilution Antimicrobial Susceptibility Tests for Bacteria That Grow Aerobically; Approved Standard-Ninth Edition. CLSI document M07-A9 (ISBN 1-56238-783-9 [Print]; ISBN 1-56238-784-7 [Electronic]). Clinical and Laboratory Standards Institute, 950 West Valley Road, Suite 2500, Wayne, Pennsylvania 19087, USA, 2012) with slight modifications.
(§3) Colonies of the microorganisms were diluted in saline (0.85%, NaCl) and adjusted using a McFarland reader (bioMérieux SA, Marcy-l'Etoile, France) to 0.5 McFarland standard. Subsequently, the bacterial suspension was diluted in Mueller-Hinton II (MHII, cation adjusted) broth to give approximately 5×10^5 colony forming units (CFU/mL).
(§4) Inocula of the microorganisms were diluted into Mueller-Hinton II (MH, cation adjusted) broth and compared with a 0.5 McFarland standard to give appr. 10^6 colony forming units (CFU)/mL. Aliquots (90 μl) of inoculate were added to 10 μl of water+P-80 (Polysorbate 80, 0.002% final concentration) containing the peptide in serial two-fold dilutions at 10 fold final concentration. The following microorganisms were used to determine antibiotic selectivity of the peptides: Escherichia coli ATCC 25922, Escherichia coli MCR-1 Af 45 and Klebsiella pneumoniae SSI3010. Antimicrobial activities of the peptides were expressed as the minimal inhibitory concentration (MIC) in μg/mL at which no visible growth was observed after 18-20 hours of incubation at 35° C.

[3] = test system: Klebsiella pneumoniae SSI3010; settings: SSI3010
Procedure: as §1, §2, §3, §4

[4] = test system: Escherichia coli ATCC 25922; settings: ATCC 25922
Procedure: as §1, §2, §3, §4

Compound | Hemolysis at 0.2 g/L [1] [%] | Escherichia coli MCR-1 Af45 MIC [2] [µg/mL] | Klebsiella pneumoniae SSI3010 MIC [3] [µg/mL] | Escherichia coli ATCC 25922 MIC [4] [µg/mL]
CC[C@H](C)[C@H](NC(=O)[C@@H]1C=CCN1C(=O)[C@@H](N)C(C)C)C(=O)N[C@@H]1C(=O)N[C@@H](Cc2ccc(O)cc2)C(=O)N[C@@H]([C@@H](C)O)C(=O)N[C@@H](CC(N)=O)C(=O)N[C@@H](CCCNC(=N)N)C(=O)N[C@@H](CCN)C(=O)N[C@@H]([C@@H](C)O)C(=O)N[C@H](CCN)C(=O)N[C@@H](CCCCN)C(=O)N[C@@H](CCN)C(=O)N[C@@H](CCN)C(=O)N[C@H](C(=O)N[C@@H](Cc2ccc(O)cc2)C(=O)O)CSSC1(C)C [Example 10, Val-Pro(3,4dehydro)-Ile-Pen-Tyr-Thr-Asn-Arg-Dab-Thr-^DDab-Lys-Dab-Dab-Cys-Tyr] (H-V[ΔPro]I[Pen]YTNR[Dab]T[dDab]K[Dab][Dab]CY-OH; disulfide 4-15) | <1 | 0.0625 | 0.125 | 0.0625
CC[C@H](C)[C@H](NC(=O)[C@@H]1C[C@@H](O)CN1C(=O)[C@@H](N)C(C)C)C(=O)N[C@H]1CSSC[C@@H](C(=O)N[C@@H](Cc2ccc(O)cc2)C(=O)O)NC(=O)[C@H](CCN)NC(=O)[C@H](CCN)NC(=O)[C@H](CCCCN)NC(=O)[C@@H](CCN)NC(=O)[C@H]([C@@H](C)O)NC(=O)[C@H](CCN)NC(=O)[C@H](CCCNC(=N)N)NC(=O)[C@H](CC(N)=O)NC(=O)[C@H](CO)NC(=O)[C@H](Cc2ccc(O)cc2)NC1=O [Example 11, Val-Hyp-Ile-Cys-Tyr-Ser-Asn-Arg-Dab-Thr-^DDab-Lys-Dab-Dab-Cys-Tyr] (H-V[Hyp]ICYSNR[Dab]T[dDab]K[Dab][Dab]CY-OH; disulfide 4-15) | <1 | 0.25 | 0.5 | 0.5
CC[C@H](C)[C@H](NC(=O)[C@@H]1C[C@@H](O)CN1C(=O)[C@@H](N)C(C)C)C(=O)N[C@H]1CSSC(C)(C)[C@@H](C(=O)N[C@@H](Cc2ccc(O)cc2)C(=O)O)NC(=O)[C@H](CCN)NC(=O)[C@H](CCN)NC(=O)[C@H](CCCCN)NC(=O)[C@@H](CCN)NC(=O)[C@H]([C@@H](C)O)NC(=O)[C@H](CCN)NC(=O)[C@H](CCCNC(=N)N)NC(=O)[C@H](CC(N)=O)NC(=O)[C@H](CO)NC(=O)[C@H](Cc2ccc(O)cc2)NC1=O [Example 12, Val-Hyp-Ile-Cys-Tyr-Ser-Asn-Arg-Dab-Thr-^DDab-Lys-Dab-Dab-Pen-Tyr] (H-V[Hyp]ICYSNR[Dab]T[dDab]K[Dab][Dab][Pen]Y-OH; disulfide 4-15) | <1 | 0.125 | 0.5 | 0.25
CC[C@H](C)[C@H](NC(=O)[C@@H]1C[C@@H](O)CN1C(=O)[C@@H](N)C(C)C)C(=O)N[C@@H]1C(=O)N[C@@H](C)C(=O)N[C@@H](CO)C(=O)N[C@@H](CC(N)=O)C(=O)N[C@@H](CCCNC(=N)N)C(=O)N[C@@H](CCN)C(=O)N[C@@H]([C@@H](C)O)C(=O)N[C@H](CCN)C(=O)N[C@@H](CCCCN)C(=O)N[C@@H](CCN)C(=O)N[C@@H](CCN)C(=O)N[C@H](C(=O)N[C@@H](Cc2ccc(O)cc2)C(=O)O)CSSC1(C)C [Example 13, Val-Hyp-Ile-Pen-Ala-Ser-Asn-Arg-Dab-Thr-^DDab-Lys-Dab-Dab-Cys-Tyr] (H-V[Hyp]I[Pen]ASNR[Dab]T[dDab]K[Dab][Dab]CY-OH; disulfide 4-15) | <1 | 0.125 | 0.5 | 0.5
CC[C@H](C)[C@H](NC(=O)[C@@H]1C[C@@H](O)CN1C(=O)[C@@H](N)C(C)C)C(=O)N[C@@H]1C(=O)N[C@@H](CO)C(=O)N[C@@H](CO)C(=O)N[C@@H](CC(N)=O)C(=O)N[C@@H](CCCNC(=N)N)C(=O)N[C@@H](CCN)C(=O)N[C@@H]([C@@H](C)O)C(=O)N[C@H](CCN)C(=O)N[C@@H](CCCCN)C(=O)N[C@@H](CCN)C(=O)N[C@@H](CCN)C(=O)N[C@H](C(=O)N[C@@H](Cc2ccc(O)cc2)C(=O)O)CSSC1(C)C [Example 14, Val-Hyp-Ile-Pen-Ser-Ser-Asn-Arg-Dab-Thr-^DDab-Lys-Dab-Dab-Cys-Tyr] (H-V[Hyp]I[Pen]SSNR[Dab]T[dDab]K[Dab][Dab]CY-OH; disulfide 4-15) | <1 | 0.25 | 0.5 | 0.5
CC[C@H](C)[C@H](NC(=O)[C@@H]1C[C@@H](O)CN1C(=O)[C@@H](N)C(C)C)C(=O)N[C@@H]1C(=O)N[C@@H](Cc2ccc(O)cc2)C(=O)N[C@@H]([C@@H](C)O)C(=O)N[C@@H](CC(N)=O)C(=O)N[C@@H](CCCNC(=N)N)C(=O)N[C@@H](CCN)C(=O)N[C@@H]([C@@H](C)O)C(=O)N[C@H](CCN)C(=O)N[C@@H](CCCCN)C(=O)N[C@@H](CCN)C(=O)N[C@@H](CCN)C(=O)N[C@H](C(=O)N[C@@H](Cc2ccc(O)cc2)C(=O)O)CSSC1(C)C [Example 15, Val-Hyp-Ile-Pen-Tyr-Thr-Asn-Arg-Dab-Thr-^DDab-Lys-Dab-Dab-Cys-Tyr] (H-V[Hyp]I[Pen]YTNR[Dab]T[dDab]K[Dab][Dab]CY-OH; disulfide 4-15) | <1 | 0.0625 | 0.125 | 0.0625
CC[C@H](C)[C@@H]1NC(=O)[C@H](Cc2ccc(O)cc2)NC(=O)[C@@H](NC(=O)[C@@H](NC(=O)[C@@H]2C[C@@H](O)CN2C(=O)[C@@H](N)C(C)C)[C@@H](C)CC)C(C)(C)SSC[C@@H](C(=O)N[C@@H](Cc2ccc(O)cc2)C(=O)O)NC(=O)[C@H](CCN)NC(=O)[C@H](CCCNC(=N)N)NC(=O)[C@H](CCCCN)NC(=O)[C@@H](CCN)NC(=O)[C@H]([C@@H](C)O)NC(=O)[C@H](CCN)NC(=O)[C@H](CCCNC(=N)N)NC(=O)[C@H](CC(N)=O)NC1=O [Example 16, Val-Hyp-Ile-Pen-Tyr-Ile-Asn-Arg-Dab-Thr-^DDab-Lys-Arg-Dab-Cys-Tyr] (H-V[Hyp]I[Pen]YINR[Dab]T[dDab]KR[Dab]CY-OH; disulfide 4-15) | <1 | 0.25 | 0.5 | 0.375
CC[C@H](C)[C@H](NC(=O)[C@@H]1C[C@@H](O)CN1C(=O)[C@@H](N)C(C)C)C(=O)N[C@@H]1C(=O)N[C@@H](Cc2ccc(O)cc2)C(=O)N[C@@H](CCC(=O)O)C(=O)N[C@@H](CC(N)=O)C(=O)N[C@@H](CCCNC(=N)N)C(=O)N[C@@H](CCN)C(=O)N[C@@H]([C@@H](C)O)C(=O)N[C@H](CCN)C(=O)N[C@@H](CCCCN)C(=O)N[C@@H](CCN)C(=O)N[C@@H](CCN)C(=O)N[C@H](C(=O)N[C@@H](Cc2ccc(O)cc2)C(=O)O)CSSC1(C)C [Example 17, Val-Hyp-Ile-Pen-Tyr-Glu-Asn-Arg-Dab-Thr-^DDab-Lys-Dab-Dab-Cys-Tyr] (H-V[Hyp]I[Pen]YENR[Dab]T[dDab]K[Dab][Dab]CY-OH; disulfide 4-15) | <1 | 0.25 | 0.5 | 0.5
CC[C@H](C)[C@H](NC(=O)[C@@H]1C[C@@H](O)CN1C(=O)[C@@H](N)C(C)C)C(=O)N[C@@H]1C(=O)N[C@@H](Cc2ccc(O)cc2)C(=O)N[C@@H](CC(N)=O)C(=O)N[C@@H](CC(N)=O)C(=O)N[C@@H](CCCNC(=N)N)C(=O)N[C@@H](CCN)C(=O)N[C@@H]([C@@H](C)O)C(=O)N[C@H](CCN)C(=O)N[C@@H](CCCCN)C(=O)N[C@@H](CCN)C(=O)N[C@@H](CCN)C(=O)N[C@H](C(=O)N[C@@H](Cc2ccc(O)cc2)C(=O)O)CSSC1(C)C [Example 18, Val-Hyp-Ile-Pen-Tyr-Asn-Asn-Arg-Dab-Thr-^DDab-Lys-Dab-Dab-Cys-Tyr] (H-V[Hyp]I[Pen]YNNR[Dab]T[dDab]K[Dab][Dab]CY-OH; disulfide 4-15) | <1 | 0.125 | 0.25 | 0.25
